Measurements reported in ChEMBL document CHEMBL4396967, “In vitro cytotoxicity screening to identify novel anti-osteosarcoma therapeutics targeting pyruvate dehydrogenase kinase 2” (Bioorg Med Chem Lett, 2019).
Activity calls are given as the source filed them. The calls are words filed in the database; no cut-off is given here.

How the values were obtained:
MG-63 [1] = experiment: Antiproliferative activity against human MG63 cells assessed as reduction in cell viability at 10 uM incubated for 72 hrs by MTT assay relative to control; type: functional; settings: MG-63, 72 h
MG-63 [2] = experiment: Antiproliferative activity against human MG63 cells assessed as reduction in cell viability incubated for 72 hrs by MTT assay; type: functional, cell-based; settings: MG-63, 72 h
SAOS-2 [3] = experiment: Antiproliferative activity against human Saos2 cells assessed as reduction in cell viability at 10 uM incubated for 72 hrs by MTT assay relative to control; type: functional; settings: SAOS-2, 72 h
SAOS-2 [4] = experiment: Antiproliferative activity against human Saos2 cells assessed as reduction in cell viability incubated for 72 hrs by MTT assay; type: functional, cell-based; settings: SAOS-2, 72 h
[5] = target: T1, [Pyruvate dehydrogenase (acetyl-transferring)] kinase isozyme 2, mitochondrial (Homo sapiens, UniProt Q15119); experiment: Inhibition of PDK2 (unknown origin) using PDCE1 as substrate at 5 uM incubated for 30 mins by kinase-Glo reagent based luminescence assay relative to control
[6] = target: T1, [Pyruvate dehydrogenase (acetyl-transferring)] kinase isozyme 2, mitochondrial; experiment: Inhibition of PDK2 (unknown origin) using PDCE1 as substrate incubated for 30 mins by kinase-Glo reagent based luminescence assay
[7] = target: T1, [Pyruvate dehydrogenase (acetyl-transferring)] kinase isozyme 2, mitochondrial; experiment: Inhibition of PDK2 (unknown origin)
[8] = target: T1, [Pyruvate dehydrogenase (acetyl-transferring)] kinase isozyme 2, mitochondrial; experiment: Binding affinity to PDK2 (unknown origin) assessed as dissociation constant by ITC analysis
[9] = target: [Pyruvate dehydrogenase (acetyl-transferring)] kinase isozyme 1, mitochondrial (Homo sapiens, UniProt Q15118); experiment: Inhibition of PDK1 (unknown origin) using PDCE1 as substrate incubated for 30 mins by kinase-Glo reagent based luminescence assay
[10] = target: [Pyruvate dehydrogenase (acetyl-transferring)] kinase isozyme 3, mitochondrial (Homo sapiens, UniProt Q15120); experiment: Inhibition of PDK3 (unknown origin) using PDCE1 as substrate incubated for 30 mins by kinase-Glo reagent based luminescence assay
[11] = target: [Pyruvate dehydrogenase (acetyl-transferring)] kinase isozyme 4, mitochondrial (Homo sapiens, UniProt Q16654); experiment: Inhibition of PDK4 (unknown origin) using PDCE1 as substrate incubated for 30 mins by kinase-Glo reagent based luminescence assay
Homo sapiens [12] = organism: Homo sapiens; experiment: Selectivity index, ratio of EC50 of PDK1 (unknown origin) to EC50 of PDK2 (unknown origin)
Homo sapiens [13] = organism: Homo sapiens; experiment: Selectivity index, ratio of EC50 of PDK3 (unknown origin) to EC50 of PDK2 (unknown origin)
Homo sapiens [14] = organism: Homo sapiens; experiment: Selectivity index, ratio of EC50 of PDK4 (unknown origin) to EC50 of PDK2 (unknown origin)
[15] = target: T1, [Pyruvate dehydrogenase (acetyl-transferring)] kinase isozyme 2, mitochondrial; experiment: Inhibition of PDK2 in human MG63 cells assessed as reduction in PDC phosphorylation at 2 or 5 uM incubated for 12 hrs by Western blot analysis; type: cell-based
[16] = target: T1, [Pyruvate dehydrogenase (acetyl-transferring)] kinase isozyme 2, mitochondrial; experiment: Inhibition of PDK2 in human MG63 cells assessed as reduction in lactate formation at 2 to 10 uM incubated for 4 hrs; type: cell-based
[17] = target: T1, [Pyruvate dehydrogenase (acetyl-transferring)] kinase isozyme 2, mitochondrial; experiment: Inhibition of recombinant human N-terminal His6-tagged SUMO-fused PDK2 expressed in Escherichia coli BL-21 cells preincubated for 15 mins followed by addition of [gamma33-ATP] and measured after 90 secs by Scintillation counting method

Chain of [Pyruvate dehydrogenase (acetyl-transferring)] kinase isozyme 4, mitochondrial (Q16654 whole entry): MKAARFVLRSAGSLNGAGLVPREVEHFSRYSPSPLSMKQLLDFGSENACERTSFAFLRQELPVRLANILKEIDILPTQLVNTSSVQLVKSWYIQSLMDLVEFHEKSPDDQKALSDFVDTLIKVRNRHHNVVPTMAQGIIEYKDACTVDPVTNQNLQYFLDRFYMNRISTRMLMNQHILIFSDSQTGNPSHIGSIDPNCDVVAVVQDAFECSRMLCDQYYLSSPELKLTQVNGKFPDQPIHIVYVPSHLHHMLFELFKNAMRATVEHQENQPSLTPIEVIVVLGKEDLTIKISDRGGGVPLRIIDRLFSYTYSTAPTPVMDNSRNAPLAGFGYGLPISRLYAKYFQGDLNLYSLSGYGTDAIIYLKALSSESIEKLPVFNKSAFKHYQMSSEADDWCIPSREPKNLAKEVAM
Chain of [Pyruvate dehydrogenase (acetyl-transferring)] kinase isozyme 1, mitochondrial (Q15118 whole entry): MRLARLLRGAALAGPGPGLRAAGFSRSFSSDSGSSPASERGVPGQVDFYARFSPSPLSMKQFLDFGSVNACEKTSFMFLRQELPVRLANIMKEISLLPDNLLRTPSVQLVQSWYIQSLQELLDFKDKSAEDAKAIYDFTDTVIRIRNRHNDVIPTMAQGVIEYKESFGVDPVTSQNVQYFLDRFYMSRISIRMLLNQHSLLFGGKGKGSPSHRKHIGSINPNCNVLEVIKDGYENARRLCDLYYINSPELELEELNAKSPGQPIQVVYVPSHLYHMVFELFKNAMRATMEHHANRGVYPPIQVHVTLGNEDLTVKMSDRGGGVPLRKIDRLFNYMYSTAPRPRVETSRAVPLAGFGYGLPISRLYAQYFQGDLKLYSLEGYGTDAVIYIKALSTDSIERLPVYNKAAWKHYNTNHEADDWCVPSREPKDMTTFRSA
Chain of [Pyruvate dehydrogenase (acetyl-transferring)] kinase isozyme 3, mitochondrial (Q15120 whole entry): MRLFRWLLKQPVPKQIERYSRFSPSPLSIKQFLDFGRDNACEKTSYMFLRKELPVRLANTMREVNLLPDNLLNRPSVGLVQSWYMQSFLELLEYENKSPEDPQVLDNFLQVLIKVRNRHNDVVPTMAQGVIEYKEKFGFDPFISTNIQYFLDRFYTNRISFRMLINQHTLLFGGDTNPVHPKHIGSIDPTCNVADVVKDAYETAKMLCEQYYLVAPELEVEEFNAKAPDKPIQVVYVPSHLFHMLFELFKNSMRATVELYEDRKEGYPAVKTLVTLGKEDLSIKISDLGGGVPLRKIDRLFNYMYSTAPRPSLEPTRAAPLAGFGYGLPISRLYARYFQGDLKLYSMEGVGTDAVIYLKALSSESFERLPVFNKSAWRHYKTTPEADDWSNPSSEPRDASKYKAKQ

Row | inhibition [5] | SMILES | inhibition at 10 µM (MG-63 [1]) [%] | IC50 (MG-63 [2]) [µM] | inhibition at 10 µM (SAOS-2 [3]) [%] | IC50 (SAOS-2 [4]) [µM] | other results
1 | inactive | CSc1nc(N2CCOCC2)c2cnn(CCNC(=O)C3CCCC3)c2n1 | 53.3 | > 10 | 45.1 | > 10 | 
2 | inactive | COc1ccc(N2CCn3c2nnc(C(=O)NCCCN(C)C)c3=O)cc1 | 71.1 | 4.9 | 65.4 | 7.9 | 
3 | 47.5% | O=C(COc1coc(CN2CCN(c3cccc(Cl)c3)CC2)cc1=O)NC1CCCC1 | 62.3 | 8.5 | 65.3 | 7.7 | 
4 | 20.1% | Cc1cc(N2CCCCC2)nc(CNC(=O)CNC(=O)c2ccccc2)n1 | 88.5 | 2.7 | 77.6 | 4.8 | 
5 | inactive | COc1cccc(C(=O)NCc2nc(N3CCCC3)nc(N3CCOCC3)n2)c1 | 53.8 | 9.2 | 68.5 | 8.1 | 

The next lines start with the molecule.

Row | SMILES | inhibition [5] | inhibition at 10 µM (MG-63 [1]) [%] | IC50 (MG-63 [2]) [µM] | inhibition at 10 µM (SAOS-2 [3]) [%] | IC50 (SAOS-2 [4]) [µM] | other results
6 | CNC(=O)COc1coc(CN2CCN(c3ccccc3)CC2)cc1=O | 54.1% | 66.1 | 7.9 | 71.2 | 6.7 | EC50 [6]: 5.2 µM
7 | O=C(CCn1ccc(=O)[nH]c1=O)N1CCN(C2=CC3CCCCC3N=N2)CC1 (centres undefined) | inactive | 84.4 | 2.1 | 86.7 | 1.8 | 
8 | CN(C)C(=O)c1ccc(S(=O)(=O)c2ccc(NC(=O)[C@@](C)(O)C(F)(F)F)c(Cl)c2)cc1 |  |  |  |  |  | EC50 [7]: 0.08 µM
9 | CC(C)NC(=O)COc1coc(CN2CCN(c3ccccc3F)CC2)cc1=O | 79.7% | 78.6 | 4.7 | 75.3 | 5.6 | EC50 [6]: 1.1 µM; Kd [8]: 2.35 µM; EC50 [9]: 11.7 µM; EC50 [10]: 24.5 µM; EC50 [11]: 67 µM; Ratio EC50 (Homo sapiens [12]): 10.6; Ratio EC50 (Homo sapiens [13]): 21.9; Ratio EC50 (Homo sapiens [14]): 60.9; inhibition [15]: Active; inhibition [16]: Active
10 | Cc1ccccc1OCC(O)Cn1c(C2CC(=O)N(C(C)(C)C)C2)nc2ccccc21 (centres undefined) | inactive | 72.8 | 7.7 | 59.3 | 8.9 | 
11 | CC(C)NC(=O)COc1coc(CN2CCN(c3ccccc3)CC2)cc1=O | 64.3% | 70.6 | 5.8 | 74.5 | 5.3 | EC50 [6]: 3.8 µM
12 | O=S(=O)(c1ccc(O)cc1O)N1Cc2cc(O)cc(O)c2C1 |  |  |  |  |  | EC50 [17]: 0.456 µM
13 | O=C(C1=C(CO)C(=O)N(CCCN2CCOCC2)[C@H]1c1ccncc1)c1cccs1 | inactive | 86.9 | 1.2 | 79.3 | 2 | 
14 | Cc1cc(=O)n2nc(N3CCN(C(=O)Cc4c[nH]c5ccccc45)CC3)nc2[nH]1 | inactive | 60.8 | 9.4 | 75.9 | 7.6 | 
15 | CN(C)c1cncc(OC2CCN(C(=O)Cc3c[nH]c4ccccc34)C2)n1 (centres undefined) | inactive | 83.9 | 2.8 | 87.7 | 2.2 | 
16 | O=C(CCn1ccc(=O)[nH]c1=O)N1CCC(Cc2n[nH]c(=O)n2-c2ccccc2F)CC1 | inactive | 62.7 | 7.1 | 48.9 | > 10 | 
